In US7166744B2, “Retinoid derivatives and methods for producing said compounds and anti-cancer pharmaceutical composition comprising said compounds” (Chebigen Co., Ltd., priority 2001, dated 2007):
pIC50: −log10 of the molar value.

What was measured:
Format in all cases: cell-based
DLD-1 colon cancer cells = assay: MTT proliferation assay, DLD-1
Procedure: (§1) The effects of test compounds on proliferation of various cancer cells was examined by 3-(4,5-dimethylthiazol-2-yl)-2,5-diphenyltetrazolium bromide (MTT, Sigma) assay in a dose dependent manner. In the MTT assay, colon, liver, cervix, ovary, and breast cancer cell lines were treated with test compounds at various concentrations. Living cancer cells reduce MTT to dark blue MTT formazan that would be measured by absorbance.
(§2) Colon cancer cells, HCT116, DLD-1 and HT29, cervix cancer cells, HeLa and CaSki, ovary cancer cells, SKOV-3, 2774 and OVCAR-3, liver cancer cells, SK-Hep-1, PLCPRF5 and HepG2, and breast cancer cells, ZR75-1 and MDA-MB 231 were seeded at an initial density of 3000 cells per well in 96-well plates. After attachment of cells to the walls of the wells, the medium containing fresh retinoid was treated with various concentrations (0.5 μM, 1 μM, 2.5 μM, 5 μM, 10 μM) for 48 hours. 50 μl of MTT solution (2 mg/ml in PBS) was added to cell culture media. The reaction micture was incubated at 37° C. in a 5% CO2 atmosphere for 4 hours. The supernatant was removed and 150 μl of DMSO was added. The optical density was measured spectrophotometrically at 550 nm. […] For other retinoid derivatives according to the present invention, absorbances were measured by this procedure and IC50 values, concentrations required for 50% growth inhibition, were determined.

HT29 colon cancer cells = assay: MTT proliferation assay, HT29
Procedure: as §1, §2

RARα = target: T1, RARα (Homo sapiens, UniProt P10276); assay: CAT reporter assay, RARα; conditions: 1 μM, control = 1.0; for expression level of CAT enzyme, RARα −: column '−'
T1 construct: expressed in transfected cells
T1 sequence (P10276 1-462): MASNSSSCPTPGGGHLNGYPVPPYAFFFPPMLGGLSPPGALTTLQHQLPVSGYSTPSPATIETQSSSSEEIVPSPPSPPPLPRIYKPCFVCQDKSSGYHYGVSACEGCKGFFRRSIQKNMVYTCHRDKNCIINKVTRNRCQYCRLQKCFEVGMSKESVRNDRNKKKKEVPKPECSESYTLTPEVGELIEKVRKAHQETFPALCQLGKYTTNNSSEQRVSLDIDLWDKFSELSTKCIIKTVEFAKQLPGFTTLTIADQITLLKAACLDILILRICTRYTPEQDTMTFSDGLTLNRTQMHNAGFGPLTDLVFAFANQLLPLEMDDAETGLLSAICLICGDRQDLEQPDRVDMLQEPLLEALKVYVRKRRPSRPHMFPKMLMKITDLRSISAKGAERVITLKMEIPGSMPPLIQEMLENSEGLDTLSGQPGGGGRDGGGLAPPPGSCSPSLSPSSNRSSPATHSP
From the text: (§3) In order to confirm the effect of KCBG60 according to the present invention on retinoid receptor activity, cells were cotransfected with expression vectors of receptor subfamilies and reporter genes. As the reporter gene, chloramphenicol acetyltransferase (CAT) with a transcription control site reactive to respective receptors was used.

RARβ = target: T2, RARβ (Homo sapiens, UniProt P10826); assay: CAT reporter assay, RARβ; conditions: 1 μM, control = 1.0; for expression level of CAT enzyme, RARβ −: column '−'
T2 construct: expressed in transfected cells
T2 sequence (P10826 1-455): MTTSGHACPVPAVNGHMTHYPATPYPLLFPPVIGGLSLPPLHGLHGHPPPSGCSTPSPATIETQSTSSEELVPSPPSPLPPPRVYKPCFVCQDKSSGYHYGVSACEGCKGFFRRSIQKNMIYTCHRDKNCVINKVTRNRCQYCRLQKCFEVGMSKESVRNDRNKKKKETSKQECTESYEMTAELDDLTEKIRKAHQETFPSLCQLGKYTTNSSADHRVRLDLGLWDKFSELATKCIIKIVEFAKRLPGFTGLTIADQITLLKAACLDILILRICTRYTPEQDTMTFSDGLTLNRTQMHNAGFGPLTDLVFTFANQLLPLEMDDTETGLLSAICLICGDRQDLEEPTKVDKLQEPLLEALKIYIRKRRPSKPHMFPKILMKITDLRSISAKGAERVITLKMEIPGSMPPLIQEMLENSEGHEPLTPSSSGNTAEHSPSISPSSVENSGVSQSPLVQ
From the text: as §3

HCT116 cells = assay: In vitro matrigel invasion assay, HCT116; conditions: HCT116, 1 μM, 8 hours, matrigel-coated filter
Procedure: Meanwhile, to determine the effect of KCBG60 on the invasion potential of HCT116 cells, in vitro assay was performed. […] After cultivation for a predetermined period of time, the number of cells migrating to lower side of the filter was measured to determin the invasion level (FIG. 15).

[1] = tested on: MCF-7 breast cancer cells; assay: MTT proliferation assay, MCF-7; conditions: 48 hours
[2] = tested on: SK-Hep-1 liver cancer cells; assay: Trypan blue surviving cell count, SK-HEP-1
From the text: Surviving cells, which had not be stained by trypan blue were counted and the results are shown in Table 3 as relative surviving cells (%).

MMP-1 mRNA expression = assay: RT-PCR of MMP-1 mRNA in HCT116; conditions: HCT116, 1 μM; for inhibition of MMP-1 mRNA expression: 36 hours
Procedure: (§4) Previously, it was shown that the synthetic retinoid derivatives inhibit the transcriptional activity of AP-1. Also, it is well known that MMP (matrix metalloproteinase), a main target gene of AP-1 is involved in metastasis of cancer cells. Therefore, the inhibitive effects of the retinoid derivatives on metastasis of cancer was examined by RT-PCR analysis. Colon cancer HCT116 cells were treated with 1 μM retinoid for 36 hours. RNA was isolated from the cells and mRNA expression levels of MMP-1, -2 and -3 were analyzed by RT-PCR. […] As the control, GAPDH was used and it was confirmed that its expression was not affected by retinoid. Meanwhile, the expression level of MMP-3 was affected weakly by KCBG40, intermediately by KCBG41 but strongly by KCBG10 (FIG. 9).
(§5) RNA was isolated from the cells and mRNA expression levels of MMP-1, -2 and -3 were analyzed by RT-PCR (FIG. 14).

MMP-2 mRNA expression = assay: RT-PCR of MMP-2 mRNA in HCT116; conditions: HCT116, 1 μM; for inhibition of MMP-2 mRNA expression: 36 hours
Procedure: as §4, §5

Compound | pIC50 (DLD-1 colon cancer cells; Homo sapiens, DLD-1, 48 hours) | pIC50 (HT29 colon cancer cells; Homo sapiens, HT-29, 48 hours) | expression level of CAT enzyme, RARα + (RARα) | expression level of CAT enzyme, RARα − (RARα) | expression level of CAT enzyme, RARβ + (RARβ) | expression level of CAT enzyme, RARβ − (RARβ) | reduction of the number of invaded cells (HCT116 cells) | pIC50 (DLD-1 colon cancer cells; 48 hours) | pIC50 (HT29 colon cancer cells; 48 hours) | pIC50 [1] | relative surviving cells (%) ([2]; SK-HEP-1, 0.5 μM) | relative surviving cells (%) ([2]; SK-HEP-1, 1 μM) | relative surviving cells (%) ([2]; SK-HEP-1, 5 μM) | relative surviving cells (%) ([2]; SK-HEP-1, 10 μM) | inhibition of MMP-1 mRNA expression (MMP-1 mRNA expression) | inhibition of MMP-2 mRNA expression (MMP-2 mRNA expression) | MMP-1 mRNA reduction compared to ATRA and phenyl butylate (MMP-1 mRNA expression; 24 hours) | reduction of MMP-1 mRNA level (MMP-1 mRNA expression; 24 hours) | MMP-2 inhibitory expression level compared to ATRA (MMP-2 mRNA expression; 24 hours) | effect on expression of MMP-2 (MMP-2 mRNA expression; 24 hours)
CC1=C(/C=C/C(C)=C/C=C/C(C)=C/C(=O)O)C(C)(C)CCC1 [ATRA, All-trans-retinoic acid, reference compound] | 4.70 | 4.74 | 66.7 | 17.3 | 65.2 | 17.3 | 40% | – | – | – | – | – | – | – | – | – | – | – | – | –
CC1=C(/C=C/C(C)=C/C=C/C(C)=C/C(=O)Nc2ccc(O)cc2)C(C)(C)CCC1 [HPR, (2E,4E,6E,8E)-[3,7-dimethyl-9-(2,6,6-trimethylcyclohex-1-enyl)-nona-2,4,6,8-tetraenoylamino]-4-hydroxyphenylamide] | – | – | 30.4 | 9.9 | 25.3 | 9.1 | – | 5.05 | 5.10 | 5.15 | 90 | 73 | 45 | 15 | affected very little | affected very little | – | – | – | –
CCCC(=O)Oc1cc(O)ccc1NC(=O)/C=C(C)/C=C/C=C(C)/C=C/C1=C(C)CCCC1(C)C [KCBG10, 2.2-[(2E,4E,6E,8E)-3,7-Dimethyl-9-(2,6,6-trimethylcyclohex-1-enyl)-nona-2,4,6,8-tetraenoylamino]-5-hydroxyphenylbutanoate] | – | – | – | – | – | – | – | 5.22 | 5.22 | 5.89 | – | – | – | – | weakly | weakly | – | – | – | –
CCCC(=O)Nc1cc(NC(=O)/C=C(C)/C=C/C=C(C)/C=C/C2=C(C)CCCC2(C)C)ccc1O [KCBG41, (2E,4E,6E,8E)-[3,7-dimethyl-9-(2,6,6-trimethylcyclohex-1-enyl)-nona-2,4,6,8-tetraenoylamino]-(3-butyrylamino-4-hydroxy)phenylamide] | – | – | – | – | – | – | – | 5.82 | 5.92 | 5.26 | – | – | – | – | strongly | strongly | – | – | – | –
CCCC(=O)Oc1ccc(NC(=O)/C=C(C)/C=C/C=C(C)/C=C/C2=C(C)CCCC2(C)C)cc1 [KCBG60] | – | – | 1.1 | 0.7 | 1.0 | 0.8 | 50% | – | – | – | 90 | 75 | 48 | 10 | – | – | two times increased | about 50% | two times higher | –
phenyl butylate | – | – | 0.8 | 0.7 | 0.9 | 0.7 | did not show invasion inhibiting effect | – | – | – | 102 | 103 | 95 | 87 | – | – | – | – | – | did not affect expression of MMP-2 at all
